# Tested on: subject having an autoimmune disease
# Format: in vivo, human
# Details: IV cyclophosphamide regimen of TABLE 1, no fludarabine, before CAR T infusion
# Excerpt: T cells are obtained from a subject having an autoimmune disease (for example, an autoimmune disease selected from (SLE), lupus nephritis, SLE with anti-dsDNA antibodies, pemphigus vulgaris (PV), mucosal PV, mucocutaneous PV, myasthenia gravis (MG), MuSK-associated MG, AChR MG, myositis, membranous nephropathy, anti-synthetase syndrome, dermatomyositis, immune mediated necrotizing myopathy, multiple sclerosis, neuromyelitis optica, chronic inflammatory demyelinating polyneuropathy, anti-NMDA Receptor encephalitis, Lambert-Eaton syndrome, pemphigus foliaceus, epidermolysis bullosa acquisita, bullous pemphigoid, Goodpasture's syndrome, rheumatoid arthritis, systemic sclerosis, anti-neutrophil cytoplasmic antibody (ANCA)-associated vasculitis, immune thrombocytopenic purpura, antiphospholipid syndrome, autoimmune hemolytic anemia, type 1 diabetes, Grave's disease, Hashimoto's disease, and Sjogren's syndrome). […]
# A dose of CAR T cells (e.g., from 1×10^6 to 1×10^7 cells/kg bodyweight) is intravenously administered to the subject. The subject is monitored post-infusion for B-cell levels, white blood cell count, CAR T cell levels, and for autoimmune disease markers (e.g., autoantibody levels).
smiles,measurement,value
O=P1(N(CCCl)CCCl)NCCCO1 (stereo not shown) [cyclophosphamide],effectiveness of the cyclophosphamide preconditioning regimen used prior to CD19-CAR T cell therapy in treating the autoimmune disease,effective in the treatment of the autoimmune disease

# — patent publication US20260272983A1, “METHODS AND COMPOSITIONS FOR TREATING AUTOIMMUNE DISEASES” (priority 2023, published 2026)
